From patent publication US9447051B2, “Diaminopyrimidines and uses thereof” (AbbVie inc., priority 2012, dated 2016)

System: RSV (Group A, Long Strain)
Assay: Antiviral (RSV) assay: cytopathetic effect (CPE) protection assay in HEp-2 cells, MTT readout
Type: cell-based, human respiratory syncytial virus (RSV)
Settings: human respiratory syncytial virus, HEp-2, 96 h, Table 1, 0.2 MOI RSV, 4 days incubation, protection from CPE
Method: HEp-2 cells and RSV (Group A, Long Strain) were obtained from the American Type Culture Collection (Manassas, Va.). A cytopathetic effect (CPE) protection assay was performed to determine the ability of a compound to protect the cells from viral infection and thus the CPE induced by viral infection. 96-well plates were first seeded with 3×10^3 HEp-2 cells per well in Dulbecco's modified Eagle's medium (DMEM) containing 10% fetal bovine serum (FBS). One day after the cells were seeded, they were preincubated with serial dilutions of compounds prepared in 100 μL assay medium (DMEM mixed with F12 medium at a 1:1 ratio, supplemented with 2% FBS and 1 mM sodium pyruvate) for 1 hour at 37° C. 100 μL of assay medium containing 0.2 multiplicity of infection (MOI) of RSV was then added to each well of cells. In addition to wells containing infected cells incubated with compounds, each plate also contained replicates of two kinds of controls: (1) Virus control contained cells infected with 0.2 MOI of RSV in assay medium, (2) Uninfected cell control contained cells incubated with assay medium only. After 4 days of incubation at 37° C., the viability of cells was assessed using MTT (Thiazolyl blue tetrazolium bromide, Sigma). A stock solution of MTT, at a concentration of 4 mg/mL in phosphate-buffered saline, was added to all wells at 25 μL per well. Plates were further incubated for 4 hours, and each well was then treated with 50 μL of a solution containing 20% sodium dodecyl sulfate (SDS) and 0.02 N HCl. After an overnight incubation, the plates were measured on a BioTek® microtiter plate reader at wavelengths of 570 nm and 650 nm. The MTT detection is based on the fact that viable (uninfected) cells can reduce the tetrazolium salts into colored formazan products, which can then be quantitated by spectrometry. […] Compounds were tested to determine both their antiviral and toxicity to determine their therapeutic window. Determination of the EC50 and TD50 of these active compounds were repeated one additional time to confirm the window.

Row | Compound | EC50 [nM]
1 | Cc1nc(NCc2ccccn2)nc(Nc2cc(F)ccc2F)c1C [Example 60, N^4-(2,5-difluorophenyl)-5,6-dimethyl-N^2-(pyridin-2-ylmethyl)pyrimidine-2,4-diamine] | 100
2 | Cc1nc(NCc2ccccn2)nc(Nc2ccon2)c1C [Example 95, 5,6-dimethyl-N^4-(1,2-oxazol-3-yl)-N^2-(pyridin-2-ylmethyl)pyrimidine-2,4-diamine] | 5300
3 | COc1ccc(CNc2nc(C)c(C)c(NC3CCCCC3)n2)cc1 [Example 8, N^4-cyclohexyl-N^2-(4-methoxybenzyl)-5,6-dimethylpyrimidine-2,4-diamine] | > 3700
4 | Cc1cccc(C)c1Nc1nc(NCc2ccccn2)nc(C)c1C [Example 68, N^4-(2,6-dimethylphenyl)-5,6-dimethyl-N^2-(pyridin-2-ylmethyl)pyrimidine-2,4-diamine] | 9
5 | Cc1nc(NCc2ccccc2)nc(NC2CCCCC2)c1C [Example 5, N^2-benzyl-N^4-cyclohexyl-5,6-dimethylpyrimidine-2,4-diamine] | 240
6 | Cc1nc(NCc2ccccn2)nc(Nc2cccc(OC(F)(F)F)c2)c1C [Example 53, 5,6-dimethyl-N^2-(pyridin-2-ylmethyl)-N^4-[3-(trifluoromethoxy)phenyl]pyrimidine-2,4-diamine] | 38
7 | Cc1nc(NCc2ccccn2)nc(NCC2CCCO2)c1C (stereo not drawn) [Example 91, 5,6-dimethyl-N^2-(pyridin-2-ylmethyl)-N^4-(tetrahydrofuran-2-ylmethyl)pyrimidine-2,4-diamine] | 2200
8 | CCC(CC)Nc1nc(NCc2ccccn2)nc(C)c1C [Example 48, 5,6-dimethyl-N^4-(pentan-3-yl)-N^2-(pyridin-2-ylmethyl)pyrimidine-2,4-diamine] | 270
9 | Cc1nc(NCc2ccccn2)nc(NCC2CCCCC2)c1C [Example 92, N^4-(cyclohexylmethyl)-5,6-dimethyl-N^2-(pyridin-2-ylmethyl)pyrimidine-2,4-diamine] | 1100
10 | Cc1nc(NCc2ccccn2)nc(Nc2ccccc2)c1C [Example 52, 5,6-dimethyl-N^4-phenyl-N^2-(pyridin-2-ylmethyl)pyrimidine-2,4-diamine] | 270
11 | Cc1nc(NCc2ccccn2)nc(Nc2ccc(Cl)cc2)c1C [Example 62, N^4-(4-chlorophenyl)-5,6-dimethyl-N^2-(pyridin-2-ylmethyl)pyrimidine-2,4-diamine] | 94
12 | Cc1nc(NCc2ccccn2)nc(Nc2ccc(C(F)(F)F)cc2)c1C [Example 57, 5,6-dimethyl-N^2-(pyridin-2-ylmethyl)-N^4-[4-(trifluoromethyl)phenyl]pyrimidine-2,4-diamine] | 230
13 | Cc1nc(NCc2ccc(C(C)C)cc2)nc(NC2CCCCC2)c1C [Example 11, N^4-cyclohexyl-N^2-(4-isopropylbenzyl)-5,6-dimethylpyrimidine-2,4-diamine] | > 2000
14 | Cc1nc(NCc2ccccn2)nc(NC2CCCC(O)C2)c1C (stereo not drawn) [Example 85, 3-({5,6-dimethyl-2-[(pyridin-2-ylmethyl)amino]pyrimidin-4-yl}amino)cyclohexanol] | 1380
15 | Cc1nc(NCc2ccccn2)nc(NC2CCNCC2)c1C [Example 83, 5,6-dimethyl-N^4-(piperidin-4-yl)-N^2-(pyridin-2-ylmethyl)pyrimidine-2,4-diamine] | 33000
16 | Cc1nc(NCc2ccccn2)nc(N(C)C2CCCCC2)c1C [Example 77, N^4-cyclohexyl-N^4,5,6-trimethyl-N^2-(pyridin-2-ylmethyl)pyrimidine-2,4-diamine] | 1200
17 | Cc1cccnc1CNc1nc(C)c(C)c(NC2CCCCC2)n1 [Example 26, N^4-cyclohexyl-5,6-dimethyl-N^2-[(3-methylpyridin-2-yl)methyl]pyrimidine-2,4-diamine] | > 5800
18 | Cc1ccnc(CNc2nc(C)c(C)c(NC3CCCCC3)n2)c1 [Example 17, N^4-cyclohexyl-5,6-dimethyl-N^2-[(4-methylpyridin-2-yl)methyl]pyrimidine-2,4-diamine] | 34
19 | Cc1nc(NCc2ccccn2)nc(NC2CCC(F)(F)CC2)c1C [Example 32, N^4-(4,4-difluorocyclohexyl)-5,6-dimethyl-N^2-(pyridin-2-ylmethyl)pyrimidine-2,4-diamine] | 220
20 | Cc1ccc(CNc2nc(C)c(C)c(NC3CCCCC3)n2)nc1 [Example 86, N^4-cyclohexyl-5,6-dimethyl-N^2-[(5-methylpyridin-2-yl)methyl]pyrimidine-2,4-diamine] | 1500

Row | Compound | EC50 [nM]
21 | Cc1nc(NCc2ccccn2)nc(NC2Cc3ccccc3C2)c1C [Example 46, N^4-(2,3-dihydro-1H-inden-2-yl)-5,6-dimethyl-N^2-(pyridin-2-ylmethyl)pyrimidine-2,4-diamine] | 320
22 | Cc1nc(NCc2ccccn2)nc(NC2CCCc3ccccc32)c1C (stereo not drawn) [Example 35, 5,6-dimethyl-N^2-(pyridin-2-ylmethyl)-N^4-(1,2,3,4-tetrahydronaphthalen-1-yl)pyrimidine-2,4-diamine] | 120
23 | Cc1nc(NCc2cc(Cl)ccn2)nc(NC2CCCCC2)c1C [Example 27, N^2-[(4-chloropyridin-2-yl)methyl]-N^4-cyclohexyl-5,6-dimethylpyrimidine-2,4-diamine] | 42
24 | Cc1cccc(CNc2nc(C)c(C)c(NC3CCCCC3)n2)n1 [Example 19, N^4-cyclohexyl-5,6-dimethyl-N^2-[(6-methylpyridin-2-yl)methyl]pyrimidine-2,4-diamine] | 590
25 | Cc1ccnc(CNc2nc(C)c(C)c(NC3CCC(F)(F)CC3)n2)c1 [Example 28, N^4-(4,4-difluorocyclohexyl)-5,6-dimethyl-N^2-[(4-methylpyridin-2-yl)methyl]pyrimidine-2,4-diamine] | 61
26 | Cc1nc(NCc2ccccn2)nc(Nc2ccc(F)cc2F)c1C [Example 88, N^4-(2,4-difluorophenyl)-5,6-dimethyl-N^2-(pyridin-2-ylmethyl)pyrimidine-2,4-diamine] | 38
27 | Cc1nc(NCc2ccccn2)nc(Nc2cc(F)cc(F)c2)c1C [Example 64, N^4-(3,5-difluorophenyl)-5,6-dimethyl-N^2-(pyridin-2-ylmethyl)pyrimidine-2,4-diamine] | 40
28 | Cc1nc(NCc2ccccn2)nc(NCC2CCCC2)c1C [Example 44, N^4-(cyclopentylmethyl)-5,6-dimethyl-N^2-(pyridin-2-ylmethyl)pyrimidine-2,4-diamine] | 24000
29 | Cc1nc(NCc2ccccn2)nc(Nc2cccc(F)c2)c1C [Example 49, N^4-(3-fluorophenyl)-5,6-dimethyl-N^2-(pyridin-2-ylmethyl)pyrimidine-2,4-diamine] | 310
30 | Cc1nc(NCc2ccccn2)nc(Nc2c(F)cccc2F)c1C [Example 55, N^4-(2,6-difluorophenyl)-5,6-dimethyl-N^2-(pyridin-2-ylmethyl)pyrimidine-2,4-diamine] | 140
31 | Cc1nc(N[C@H](C)c2ccccc2)nc(NC2CCCCC2)c1C [Example 15, N^4-cyclohexyl-5,6-dimethyl-N^2-[(1R)-1-phenylethyl]pyrimidine-2,4-diamine] | > 1900
32 | Cc1nc(NCc2ccc(F)cc2)nc(NC2CCCCC2)c1C [Example 9, N^4-cyclohexyl-N^2-(4-fluorobenzyl)-5,6-dimethylpyrimidine-2,4-diamine] | > 3000
33 | Cc1nc(NCc2cccs2)nc(NC2CCCCC2)c1C [Example 22, N^4-cyclohexyl-5,6-dimethyl-N^2-(2-thienylmethyl)pyrimidine-2,4-diamine] | 69
34 | Cc1nc(NCc2ccccn2)nc(NC2CCOCC2)c1C [Example 30, 5,6-dimethyl-N^2-(pyridin-2-ylmethyl)-N^4-(tetrahydro-2H-pyran-4-yl)pyrimidine-2,4-diamine] | 1100
35 | Cc1ccc(Nc2nc(NCc3ccccn3)nc(C)c2C)cc1 [Example 63, 5,6-dimethyl-N^4-(4-methylphenyl)-N^2-(pyridin-2-ylmethyl)pyrimidine-2,4-diamine] | 52
36 | Cc1nc(NCc2ccn[nH]2)nc(NC2CCCCC2)c1C [Example 14, N^4-cyclohexyl-5,6-dimethyl-N^2-(1H-pyrazol-5-ylmethyl)pyrimidine-2,4-diamine] | 840
37 | COc1ccnc(CNc2nc(C)c(C)c(NC3CCCCC3)n2)c1 [Example 18, N^4-cyclohexyl-N^2-[(4-methoxypyridin-2-yl)methyl]-5,6-dimethylpyrimidine-2,4-diamine] | 310
38 | Cc1cccc(F)c1Nc1nc(NCc2ccccn2)nc(C)c1C [Example 72, N^4-(2-fluoro-6-methylphenyl)-5,6-dimethyl-N^2-(pyridin-2-ylmethyl)pyrimidine-2,4-diamine] | 78
39 | Cc1nc(NCc2ccccn2)nc(Nc2cccc(Cl)c2)c1C [Example 65, N^4-(3-chlorophenyl)-5,6-dimethyl-N^2-(pyridin-2-ylmethyl)pyrimidine-2,4-diamine] | 40
